Data as given in PubChem BioAssay (NCI).
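How tested: cells in 96-well plates exposed to compound for 48 hours at five concentrations. GI50 = concentration required for 50% inhibition of growth. TGI: concentration producing complete growth inhibition.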

How the values were obtained:
Experiment in all cases: DTP human tumour cell line panel, 48 h
NCI-H460 lung = tested on: NCI-H460 lung
MDA-MB-231 breast = tested on: MDA-MB-231 breast
TK-10 renal = tested on: TK-10 renal
MOLT-4 leukemia = tested on: MOLT-4 leukemia
OVCAR-5 ovarian = tested on: OVCAR-5 ovarian
K-562 leukemia = tested on: K-562 leukemia
BT-549 breast = tested on: BT-549 breast
MALME-3M melanoma = tested on: MALME-3M melanoma
LOX IMVI melanoma = tested on: LOX IMVI melanoma
SN12C renal = tested on: SN12C renal

| SMILES | GI50 (NCI-H460 lung) | TGI (NCI-H460 lung) | GI50 (MDA-MB-231 breast) | TGI (MDA-MB-231 breast) | GI50 (TK-10 renal) | TGI (TK-10 renal) | GI50 (MOLT-4 leukemia) | TGI (MOLT-4 leukemia) | GI50 (OVCAR-5 ovarian) | TGI (OVCAR-5 ovarian) | GI50 (K-562 leukemia) | TGI (K-562 leukemia) | GI50 (BT-549 breast) | TGI (BT-549 breast) | TGI (MALME-3M melanoma) | TGI (LOX IMVI melanoma) | TGI (SN12C renal) | GI50 (LOX IMVI melanoma) | GI50 (SN12C renal) |
| --- | --- | --- | --- | --- | --- | --- | --- | --- | --- | --- | --- | --- | --- | --- | --- | --- | --- | --- | --- |
| CN(C)C/C=C/C(=O)Nc1ccc(C(=O)N[C@@]2(C)CCC[C@@H](Nc3ncc(Cl)c(-c4c[nH]c5ccccc45)n3)C2)nc1 | < 0.01 µM | 0.386 µM | 0.0145 µM | 1.22 µM | 0.0153 µM | 1.11 µM | 0.0178 µM | 1.12 µM | 0.0213 µM | 1.24 µM | < 0.01 µM | 5.32 µM | 0.036 µM | 0.155 µM |  |  |  |  |  |
| CCCC1(CC(=O)O)OCCc2c1[nH]c1ccccc21 (stereo not given) |  |  |  |  |  | > 100 µM |  | > 100 µM |  | > 100 µM |  | > 100 µM |  |  | > 100 µM | > 100 µM | > 100 µM |  |  |
| N#CCC(=O)N/N=C1/C(=O)N(c2ccc(Cl)cc2)C(=O)C(=O)C1c1nc2ccccc2s1 (stereo not given) |  |  |  |  |  | > 100 µM |  |  |  | > 100 µM |  |  |  |  | > 100 µM | > 100 µM | > 100 µM |  |  |
| CCN(CC)CCNC(Cc1ccccc1)c1ccc(OCc2ccccc2)cc1 (stereo not given) | 3.56 µM | 12.9 µM | 1.92 µM | 6.65 µM |  |  | 3.43 µM | 13.2 µM | 7.02 µM | 22.4 µM | 2.37 µM | 7.16 µM | 3.55 µM | 18.7 µM |  | 15.9 µM | 20.8 µM | 4.19 µM | 6.68 µM |
| CC(C)(C)c1cc([N+](=O)[O-])cc([N+](=O)[O-])c1O |  | > 10 µM |  | > 10 µM |  | > 10 µM |  | > 10 µM |  | > 10 µM |  | > 10 µM |  |  |  | > 10 µM | > 10 µM |  |  |
| O=C(Nc1ccc(Cl)cc1)C1C(=O)C(=O)N(c2ccc(Cl)cc2)C1=O (stereo not given) |  | > 100 µM |  |  |  | > 100 µM |  | > 100 µM |  | > 100 µM |  | > 100 µM |  |  | > 100 µM | > 100 µM | > 100 µM |  |  |
| CCCCCCCCCCCC(=O)OCCOCCOCCOCCOCCOC(=O)CCCCCCCCCCC |  | > 100 µM |  |  |  | > 100 µM |  | > 100 µM |  | > 100 µM |  | > 100 µM |  |  | > 100 µM | > 100 µM | > 100 µM |  |  |
| CCN1CCCc2cc3c(C(F)(F)F)cc(=O)oc3cc21 |  | > 100 µM |  | > 100 µM |  | > 100 µM |  | > 100 µM |  | > 100 µM |  | > 100 µM |  | > 100 µM |  | > 100 µM | > 100 µM |  |  |
| COc1ccc(NC(=O)CC/C(CC(=O)c2ccco2)=N/NC(=O)C(N)=O)cc1 |  | > 100 µM |  |  |  | > 100 µM |  | > 100 µM |  | > 100 µM |  | > 100 µM |  |  | > 100 µM | > 100 µM | > 100 µM |  |  |
| CN(C)Cc1cc(C(F)(F)F)ccc1C(O)(c1ccccc1)c1ccccc1 |  | 28.1 µM |  | 24.8 µM |  | 31 µM |  | 38.8 µM |  | 36.9 µM |  | 24.4 µM |  |  | 33.9 µM | 31.8 µM | 29.3 µM |  |  |
| C=CC[P@]1(=O)O[C@H](c2ccccc2)[C@H](C)N1C |  | > 100 µM |  |  |  | > 100 µM |  | > 100 µM |  | > 100 µM |  | > 100 µM |  |  | > 100 µM | > 100 µM | > 100 µM |  |  |
